Results from ChEMBL document CHEMBL3044672, “N9- and N7-(Chloromethyl Phenymethyl)Chloropurine Derivatives from , '-Dichloroxylenes: Synthesis and Anticancer Activity” (2005).

Assays:
Type in all cases: functional
T47D = test: Cytotoxicity against Homo sapiens (human) T47D cells after 48 hr by sulforhodamine B assay
SF-295 = test: Cytotoxicity against Homo sapiens (human) SF295 cells after 48 hr by sulforhodamine B assay; details: SF-295, 48 h
COLO 205 = test: Cytotoxicity against Homo sapiens (human) COLO205 cells after 48 hr by sulforhodamine B assay; details: COLO 205, 48 h
HCC 2998 = test: Cytotoxicity against Homo sapiens (human) HCC2998 cells after 48 hr by sulforhodamine B assay; details: HCC 2998, 48 h
NCI-H322M = test: Cytotoxicity against Homo sapiens (human) NCI-H322M cells after 48 hr by sulforhodamine B assay
MCF7 = test: Cytotoxicity against Homo sapiens (human) MCF7 cells after 48 hr by sulforhodamine B assay; details: MCF7, 48 h
TK-10 = test: Cytotoxicity against Homo sapiens (human) TK10 cells after 48 hr by sulforhodamine B assay; details: TK-10, 48 h
HCT-116 = test: Cytotoxicity against Homo sapiens (human) HCT116 cells after 48 hr by sulforhodamine B assay; details: HCT-116, 48 h
Hs-578T = test: Cytotoxicity against Homo sapiens (human) Hs 578T cells after 48 hr by sulforhodamine B assay
DU-145 = test: Cytotoxicity against Homo sapiens (human) DU145 cells after 48 hr by sulforhodamine B assay; details: DU-145, 48 h
EKVX = test: Cytotoxicity against Homo sapiens (human) EKVX cells after 48 hr by sulforhodamine B assay
IGROV-1 = test: Cytotoxicity against Homo sapiens (human) IGROV1 cells after 48 hr by sulforhodamine B assay; details: IGROV-1, 48 h
NCI-H460 = test: Cytotoxicity against Homo sapiens (human) NCI-H460 cells after 48 hr by sulforhodamine B assay; details: NCI-H460, 48 h
SK-MEL-5 = test: Cytotoxicity against Homo sapiens (human) SK-MEL-5 cells after 48 hr by sulforhodamine B assay; details: SK-MEL-5, 48 h
SK-OV-3 = test: Cytotoxicity against Homo sapiens (human) SKOV3 cells after 48 hr by sulforhodamine B assay; details: SK-OV-3, 48 h
OVCAR-5 = test: Cytotoxicity against Homo sapiens (human) OVCAR5 cells after 48 hr by sulforhodamine B assay; details: OVCAR-5, 48 h
KM12 = test: Cytotoxicity against Homo sapiens (human) KM12 cells after 48 hr by sulforhodamine B assay; details: KM12, 48 h
OVCAR-4 = test: Cytotoxicity against Homo sapiens (human) OVCAR4 cells after 48 hr by sulforhodamine B assay; details: OVCAR-4, 48 h
RXF 393 = test: Cytotoxicity against Homo sapiens (human) RXF393 cells after 48 hr by sulforhodamine B assay; details: RXF 393, 48 h
HOP-62 = test: Cytotoxicity against Homo sapiens (human) HOP62 cells after 48 hr by sulforhodamine B assay; details: HOP-62, 48 h
HT-29 = test: Cytotoxicity against Homo sapiens (human) HT-29 cells after 48 hr by sulforhodamine B assay; details: HT-29, 48 h
MDA-MB-231 = test: Cytotoxicity against Homo sapiens (human) MDA-MB-231 cells after 48 hr by sulforhodamine B assay; details: MDA-MB-231, 48 h
SNB-75 = test: Cytotoxicity against Homo sapiens (human) SNB75 cells after 48 hr by sulforhodamine B assay; details: SNB-75, 48 h
SK-MEL-2 = test: Cytotoxicity against Homo sapiens (human) SK-MEL-2 cells after 48 hr by sulforhodamine B assay; details: SK-MEL-2, 48 h
RPMI-8226 = test: Cytotoxicity against Homo sapiens (human) RPMI8226 cells after 48 hr by sulforhodamine B assay; details: RPMI-8226, 48 h
MDA-MB-435 = test: Cytotoxicity against Homo sapiens (human) MDA-MB-435 cells after 48 hr by sulforhodamine B assay; details: MDA-MB-435, 48 h
PC-3 = test: Cytotoxicity against Homo sapiens (human) PC3 cells after 48 hr by sulforhodamine B assay; details: PC-3, 48 h
OVCAR-3 = test: Cytotoxicity against Homo sapiens (human) OVCAR3 cells after 48 hr by sulforhodamine B assay; details: OVCAR-3, 48 h
MOLT-4 = test: Cytotoxicity against Homo sapiens (human) MOLT4 cells after 48 hr by sulforhodamine B assay; details: MOLT-4, 48 h
SW-620 = test: Cytotoxicity against Homo sapiens (human) SW620 cells after 48 hr by sulforhodamine B assay; details: SW-620, 48 h
[1] = read-out: LC50 (the source's name)

ClCc1cccc(Cn2cnc3c(Cl)ncnc32)c1
GI50 (T47D): 3.02 µM | LC50 (T47D): > 100 µM | TGI (T47D): 12.3 µM | GI50 (SF-295): 3.23 µM | TGI (SF-295): 8.7 µM | CC50 (SF-295; [1]): 29.5 µM | GI50 (COLO 205): 3.09 µM | TGI (COLO 205): 10.5 µM | CC50 (COLO 205; [1]): 74.1 µM | GI50 (HCC 2998): 0.4 µM | TGI (HCC 2998): 1.73 µM | CC50 (HCC 2998; [1]): 5.49 µM | GI50 (NCI-H322M): 1.9 µM | TGI (NCI-H322M): 3.46 µM | CC50 (NCI-H322M; [1]): 6.45 µM | GI50 (MCF7): 7.76 µM | LC50 (concentration killing 50% of cells) (MCF7): > 100 µM | TGI (MCF7): 77.6 µM | GI50 (TK-10): 4.57 µM | TGI (TK-10): 16.2 µM | CC50 (TK-10; [1]): 46.8 µM | GI50 (HCT-116): 1.47 µM | TGI (HCT-116): 3.09 µM | CC50 (HCT-116; [1]): 6.31 µM | GI50 (Hs-578T): 3.46 µM | LC50 (Hs-578T): 81.3 µM | TGI (Hs-578T): 11.5 µM | GI50 (DU-145): 11.2 µM | LC50 (DU-145): 51.3 µM | TGI (DU-145): 24 µM | GI50 (EKVX): 18.6 µM | TGI (EKVX): 33.9 µM | CC50 (EKVX; [1]): 63.1 µM | GI50 (IGROV-1): 9.33 µM | LC50 (IGROV-1): > 100 µM | TGI (IGROV-1): 33.9 µM | GI50 (NCI-H460): 11.8 µM | TGI (NCI-H460): 36.3 µM | CC50 (NCI-H460; [1]): > 100 µM | GI50 (SK-MEL-5): 2.29 µM | LC50 (SK-MEL-5): 24.6 µM | TGI (SK-MEL-5): 6.31 µM | GI50 (SK-OV-3): 3.31 µM | LC50 (SK-OV-3): 33.1 µM | TGI (SK-OV-3): 10.5 µM | GI50 (OVCAR-5): 2.08 µM | TGI (OVCAR-5): 4.36 µM | CC50 (OVCAR-5; [1]): 8.91 µM | GI50 (KM12): 3.46 µM | TGI (KM12): 13.5 µM | CC50 (KM12; [1]): 3.98 µM | GI50 (OVCAR-4): 2.34 µM | LC50 (concentration killing 50% of cells) (OVCAR-4): 26.3 µM | TGI (OVCAR-4): 5.75 µM | GI50 (RXF 393): 2.29 µM | TGI (RXF 393): 24 µM | CC50 (RXF 393; [1]): 70.8 µM | GI50 (HOP-62): 2.63 µM | TGI (HOP-62): 5.12 µM | CC50 (HOP-62; [1]): 10.2 µM | GI50 (HT-29): 3.23 µM | TGI (HT-29): > 100 µM | CC50 (HT-29; [1]): > 100 µM | GI50 (MDA-MB-231): 1.99 µM | LC50 (MDA-MB-231): 8.12 µM | TGI (MDA-MB-231): 4.07 µM | GI50 (SNB-75): 2.08 µM | TGI (SNB-75): 4.57 µM | CC50 (SNB-75; [1]): 10 µM | GI50 (SK-MEL-2): 21.9 µM | LC50 (concentration killing 50% of cells) (SK-MEL-2): > 100 µM | TGI (SK-MEL-2): 51.3 µM | GI50 (RPMI-8226): 3.8 µM | TGI (RPMI-8226): 16.2 µM | CC50 (RPMI-8226; [1]): 87.1 µM | GI50 (MDA-MB-435): 1.69 µM | LC50 (MDA-MB-435): 6.45 µM | TGI (MDA-MB-435): 3.31 µM | GI50 (PC-3): 4.16 µM | LC50 (concentration causing 50% cell kill) (PC-3): 67.6 µM | TGI (PC-3): 18.2 µM | GI50 (OVCAR-3): 1.62 µM | LC50 (OVCAR-3): 5.75 µM | TGI (OVCAR-3): 3.02 µM | GI50 (MOLT-4): 15.8 µM | TGI (MOLT-4): 37.1 µM | CC50 (MOLT-4; [1]): 89.1 µM | GI50 (SW-620): 2.13 µM | TGI (SW-620): 4.36 µM | CC50 (SW-620; [1]): 8.91 µM
